Patent publication US20030148960A1, “Combination therapy of angiotensin converting enzyme inhibitor and side-effect-reduced amount of aldosterone antagonist for treatment of cardiovascular disease” (G.D. Searle & Co., priority 1995, published 2003)

Columns and labels:
[1] = test system: patients with symptomatic heart failure; assay: Human clinical trial: incidence and predictors of hyperkalemia (Cox regression); settings: type of ACE-I as predictor; step-wise Cox regression; patients on spironolactone or placebo
Source text: In this, analysis, the risk ratio can be thought of as the probability that the patient with the risk factor will develop hyperkalemia, relative to the probability that a patient without the risk factor will develop it.

[2] = test system: patients with symptomatic heart failure; assay: Human clinical trial: incidence of adverse events, intent-to-treat cohort; type: in vivo
[3] = test system: patients with symptomatic heart failure; assay: Human clinical trial: hospitalizations and deaths; type: in vivo
Source text: A breakdown of the hospitalizations is as follows:

[4] = test system: patients with symptomatic heart failure; assay: Human clinical trial: cardiac assessments and changes in patient therapy; type: in vivo
Source text: (§1) Cardiac assessments that included blood pressure, pulse, sodium retention score (general assessment of a patient's edematous state was derived from the summation of scores obtained from Table I), NYHA classification, and
All statistical methods were two-sided.

[5] = test system: patients afflicted with congestive heart failure; settings: 100 mg/day coadministered with an ACE inhibitor; cited from earlier work
refractory CHF = settings: 50 mg/day to 100 mg/day (average 73 mg/day) in combination with captopril; cited from earlier work
[6] = test system: myocardial fibrosis in animal models; settings: cited from earlier work
[7] = test system: patients with symptomatic heart failure; assay: Human clinical trial: change in weight and vital signs; type: in vivo
Source text: Laboratory Measurements: The following information was obtained from each patient at baseline:
as §1
All statistical methods were two-sided.

[8] = test system: patients with symptomatic heart failure; assay: Human clinical trial: clinical laboratory values (neurohormones, hematology, biochemistry); settings: for PRA (plasma renin activity), Week 12 mean change: Week 12 vs baseline, with stable ACE inhibitor and loop diuretic

C[C@H](CS)C(=O)N1CCC[C@H]1C(=O)O [Captopril, captopril]
Risk ratio of hyperkalemia, captopril vs other ACE-I [1]: about one-third

CC(=O)S[C@@H]1CC2=CC(=O)CC[C@]2(C)[C@H]2CC[C@@]3(C)[C@@H](CC[C@@]34CCC(=O)O4)[C@H]12 [Spironolactone, 17-hydroxy-7α-mercapto-3-oxo-17α-pregn-4-ene-21-carboxylic acid γ-lactone acetate]
Incidence of URT infection ([2]; 12.5 mg): 4.9 Percentage of Patients | Incidence of abdominal pain ([2]; 12.5 mg): 7.3 Percentage of Patients | Incidence of angina pectoris ([2]; 12.5 mg): 19.5 Percentage of Patients | Incidence of arthralgia ([2]; 12.5 mg): 4.9 Percentage of Patients | Incidence of coughing ([2]; 12.5 mg): 4.9 Percentage of Patients | Incidence of diarrhea ([2]; 12.5 mg): 4.9 Percentage of Patients | Incidence of dizziness ([2]; 12.5 mg): 12.2 Percentage of Patients | Incidence of dyspnea ([2]; 12.5 mg): 22.0 Percentage of Patients | Incidence of fatigue ([2]; 12.5 mg): 12.2 Percentage of Patients | Incidence of headache ([2]; 12.5 mg): 9.8 Percentage of Patients | Incidence of hyperkalemia (adverse event) ([2]; 12.5 mg): 2.4 Percentage of Patients | Incidence of nausea ([2]; 12.5 mg): 2.4 Percentage of Patients | Incidence of URT infection ([2]; 25 mg): 11.1 Percentage of Patients | Incidence of abdominal pain ([2]; 25 mg): 8.9 Percentage of Patients | Incidence of angina pectoris ([2]; 25 mg): 20.0 Percentage of Patients | Incidence of arthralgia ([2]; 25 mg): 4.4 Percentage of Patients | Incidence of coughing ([2]; 25 mg): 2.2 Percentage of Patients | Incidence of diarrhea ([2]; 25 mg): 22.2 Percentage of Patients | Incidence of dizziness ([2]; 25 mg): 13.3 Percentage of Patients | Incidence of dyspnea ([2]; 25 mg): 15.6 Percentage of Patients | Incidence of fatigue ([2]; 25 mg): 13.3 Percentage of Patients | Incidence of headache ([2]; 25 mg): 2.2 Percentage of Patients | Incidence of hyperkalemia (adverse event) ([2]; 25 mg): 8.9 Percentage of Patients | Incidence of nausea ([2]; 25 mg): 17.8 Percentage of Patients | Incidence of URT infection ([2]; 50 mg): 8.7 Percentage of Patients | Incidence of abdominal pain ([2]; 50 mg): 13.0 Percentage of Patients | Incidence of angina pectoris ([2]; 50 mg): 8.7 Percentage of Patients | Incidence of arthralgia ([2]; 50 mg): 8.7 Percentage of Patients | Incidence of coughing ([2]; 50 mg): 4.3 Percentage of Patients | Incidence of diarrhea ([2]; 50 mg): 8.7 Percentage of Patients | Incidence of dizziness ([2]; 50 mg): 13.0 Percentage of Patients | Incidence of dyspnea ([2]; 50 mg): 26.1 Percentage of Patients | Incidence of fatigue ([2]; 50 mg): 15.2 Percentage of Patients | Incidence of headache ([2]; 50 mg): 15.2 Percentage of Patients | Incidence of hyperkalemia (adverse event) ([2]; 50 mg): 15.2 Percentage of Patients | Incidence of nausea ([2]; 50 mg): 6.5 Percentage of Patients | Incidence of URT infection ([2]; 75 mg): 2.4 Percentage of Patients | Incidence of abdominal pain ([2]; 75 mg): 7.3 Percentage of Patients | Incidence of angina pectoris ([2]; 75 mg): 14.6 Percentage of Patients | Incidence of arthralgia ([2]; 75 mg): 4.9 Percentage of Patients | Incidence of coughing ([2]; 75 mg): 2.4 Percentage of Patients | Incidence of diarrhea ([2]; 75 mg): 14.6 Percentage of Patients | Incidence of dizziness ([2]; 75 mg): 17.1 Percentage of Patients | Incidence of dyspnea ([2]; 75 mg): 24.4 Percentage of Patients | Incidence of fatigue ([2]; 75 mg): 14.6 Percentage of Patients | Incidence of headache ([2]; 75 mg): 7.3 Percentage of Patients | Incidence of hyperkalemia (adverse event) ([2]; 75 mg): 19.5 Percentage of Patients | Incidence of nausea ([2]; 75 mg): 19.5 Percentage of Patients | Hospitalizations, number of patients ([3]; 12.5 mg): 3 Patients | Hospitalizations, percent of patients ([3]; 12.5 mg): (7.3%) | Hospitalizations, number of patients ([3]; 25 mg): 3 Patients | Hospitalizations, percent of patients ([3]; 25 mg): (6.6%) | Hospitalizations, number of patients ([3]; 50 mg): 13 Patients | Hospitalizations, percent of patients ([3]; 50 mg): (27.6%) | Hospitalizations, number of patients ([3]; 75 mg): 6 Patients | Hospitalizations, percent of patients ([3]; 75 mg): (14.6%) | Deaths within 30 days after the study was completed ([3]; patients previously at the 50 mg dose): Three patients died within 30 days after the study was completed | Sodium retention score, dose response ([4]; Day 9, p=0.019, not seen at later visits): higher doses showing more reduction in sodium retention score | Changes in loop diuretic therapy ([4]; Week 8, p=0.004, not observed at Week 12): more patients on the higher doses of spironolactone had decreases in the loop diuretic dose compared to the placebo group | NYHA Class ([4]; spironolactone groups vs placebo): the difference was not statistically significant | Patients in whom treatment was highly effective [5]: 13 of 16 | Control of refractory CHF (refractory CHF): effective to control refractory CHF without serious incidents of hyperkalemia | Effect on myocardial fibrosis [6]: prevents myocardial fibrosis | Change in mean systolic and diastolic blood pressure (standing and supine) ([7]; 25 mg, 50 mg and 75 mg groups, all visits): decreases in mean systolic and diastolic blood pressure | Mean change in weight from baseline to Week 12 ([7]; 50 mg/d, Week 12, with stable ACE inhibitor and loop diuretic): 0.62 (2.05) | Change from baseline in body weight, dose response ([7]; 75 mg dose group, Day 9 and Week 4): more weight loss than other patients | PRA (plasma renin activity), Week 12 mean change ([8]; 12.5 mg/d): 9.90 NgAngl/L/s | PRA (plasma renin activity), Week 12 mean change ([8]; 25 mg/d): 9.33 NgAngl/L/s | PRA (plasma renin activity), Week 12 mean change ([8]; 50 mg/d): 13.18 NgAngl/L/s | PRA (plasma renin activity), Week 12 mean change ([8]; 75 mg/d): 10.23 NgAngl/L/s | Change from baseline in PRA, dose response ([8]; Day 9, Week 4 and Week 12, P≦0.001): higher doses of spironolactone associated with greater increases in PRA | N-Terminal ANF change from baseline ([8]; all active treatments, all treatment visits): decreases from baseline | Change from baseline in serum potassium, dose response ([8]; all treatment period visits, p<0.001): Higher doses of spironolactone were associated with larger increases in potassium | Urinary aldosterone excretion, dose response ([8]; baseline to 12 week visit, p=0.002): Greater increases were seen at higher doses
